Assay results reported in PubChem BioAssay (NCI).
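96-well plates; 48 h exposure; 5 concentrations. Endpoints by linear interpolation between flanking doses. Not reached: highest tested concentration assigned. At the TGI there is no net growth.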

Assays:
Assay in all cases: DTP human tumour cell line panel, 48 h
786-0 renal = test system: 786-0 renal
A498 renal = test system: A498 renal
A549 NSCLC = test system: A549 NSCLC
ACHN renal = test system: ACHN renal
CCRF-CEM leukemia = test system: CCRF-CEM leukemia
COLO 205 colon = test system: COLO 205 colon
DLD-1 colon = test system: DLD-1 colon
DMS 114 small cell lung = test system: DMS 114 small cell lung
EKVX NSCLC = test system: EKVX NSCLC
HCC-2998 colon = test system: HCC-2998 colon
HCT-116 colon = test system: HCT-116 colon
HL-60(TB) leukemia = test system: HL-60(TB) leukemia
HOP-18 NSCLC = test system: HOP-18 NSCLC
HOP-62 NSCLC = test system: HOP-62 NSCLC
HOP-92 NSCLC = test system: HOP-92 NSCLC
HT29 colon = test system: HT29 colon
IGROV1 ovarian = test system: IGROV1 ovarian
K-562 leukemia = test system: K-562 leukemia
KM12 colon = test system: KM12 colon
KM20L2 colon = test system: KM20L2 colon
LOX IMVI melanoma = test system: LOX IMVI melanoma
LXFL 529 NSCLC = test system: LXFL 529 NSCLC
M14 melanoma = test system: M14 melanoma
M19-MEL melanoma = test system: M19-MEL melanoma
MALME-3M melanoma = test system: MALME-3M melanoma
MOLT-4 leukemia = test system: MOLT-4 leukemia
NCI-H226 lung = test system: NCI-H226 lung
NCI-H23 lung = test system: NCI-H23 lung
NCI-H460 lung = test system: NCI-H460 lung
NCI-H522 lung = test system: NCI-H522 lung
OVCAR-3 ovarian = test system: OVCAR-3 ovarian
OVCAR-4 ovarian = test system: OVCAR-4 ovarian
OVCAR-5 ovarian = test system: OVCAR-5 ovarian
OVCAR-8 ovarian = test system: OVCAR-8 ovarian
RPMI-8226 leukemia = test system: RPMI-8226 leukemia
RXF 393 renal = test system: RXF 393 renal
RXF-631 renal = test system: RXF-631 renal
SF-268 CNS = test system: SF-268 CNS
SF-295 CNS = test system: SF-295 CNS
SF-539 CNS = test system: SF-539 CNS
SK-MEL-2 melanoma = test system: SK-MEL-2 melanoma
SK-MEL-28 melanoma = test system: SK-MEL-28 melanoma
SK-MEL-5 melanoma = test system: SK-MEL-5 melanoma
SK-OV-3 ovarian = test system: SK-OV-3 ovarian
SN12C renal = test system: SN12C renal
SNB-75 CNS = test system: SNB-75 CNS
SR leukemia = test system: SR leukemia
SW-620 colon = test system: SW-620 colon
TK-10 renal = test system: TK-10 renal
U251 CNS = test system: U251 CNS
UACC-257 melanoma = test system: UACC-257 melanoma
UACC-62 melanoma = test system: UACC-62 melanoma
UO-31 renal = test system: UO-31 renal

For `COc1ccc(CN2C(=O)C(Cc3cc(OC)c(OC)c(C)c3OC)NC(=O)/C2=C/c2cc(OC)c(OC)c(C)c2OC)cc1` (stereo not drawn), the TGI (786-0 renal) was > 100 µM, the TGI (A498 renal) was 97.6 µM and the TGI (A549 NSCLC) was > 100 µM. The TGI (ACHN renal) was > 100 µM, the TGI (CCRF-CEM leukemia) was 71.1 µM and the TGI (COLO 205 colon) was 47.4 µM. The TGI (DLD-1 colon) was > 100 µM, the TGI (DMS 114 small cell lung) was 97.3 µM and the TGI (EKVX NSCLC) was > 100 µM. The TGI (HCC-2998 colon) was 90.9 µM, the TGI (HCT-116 colon) was 60.7 µM and the TGI (HL-60(TB) leukemia) was 45.8 µM. For the same compound, the TGI (HOP-18 NSCLC) was 65.2 µM, the TGI (HOP-62 NSCLC) was > 100 µM and the TGI (HOP-92 NSCLC) was 67.7 µM. The TGI (HT29 colon) was 66.2 µM, the TGI (IGROV1 ovarian) was > 100 µM and the TGI (K-562 leukemia) was > 100 µM. For the same compound, the TGI (KM12 colon) was > 100 µM, the TGI (KM20L2 colon) was 59.2 µM and the TGI (LOX IMVI melanoma) was > 100 µM. The TGI (LXFL 529 NSCLC) was > 100 µM, the TGI (M14 melanoma) was 96.9 µM and the TGI (M19-MEL melanoma) was 37.7 µM. For the same compound, the TGI (MALME-3M melanoma) was 67.8 µM, the TGI (MOLT-4 leukemia) was 60.6 µM and the TGI (NCI-H226 lung) was 60.2 µM. For the same compound, the TGI (NCI-H23 lung) was > 100 µM, the TGI (NCI-H460 lung) was 57 µM and the TGI (NCI-H522 lung) was 50 µM. The TGI (OVCAR-3 ovarian) was 82.2 µM, the TGI (OVCAR-4 ovarian) was 82.5 µM and the TGI (OVCAR-5 ovarian) was > 100 µM. The TGI (OVCAR-8 ovarian) was > 100 µM, the TGI (RPMI-8226 leukemia) was 70.2 µM and the TGI (RXF 393 renal) was 71.2 µM. The TGI (RXF-631 renal) was > 100 µM, the TGI (SF-268 CNS) was > 100 µM and the TGI (SF-295 CNS) was > 100 µM. For the same compound, the TGI (SF-539 CNS) was > 100 µM, the TGI (SK-MEL-2 melanoma) was 43.2 µM and the TGI (SK-MEL-28 melanoma) was > 100 µM. The TGI (SK-MEL-5 melanoma) was 34.5 µM, the TGI (SK-OV-3 ovarian) was > 100 µM and the TGI (SN12C renal) was > 100 µM. For the same compound, the TGI (SNB-75 CNS) was > 100 µM, the TGI (SR leukemia) was 60.7 µM and the TGI (SW-620 colon) was > 100 µM. For the same compound, the TGI (TK-10 renal) was 83.1 µM, the TGI (U251 CNS) was > 100 µM and the TGI (UACC-257 melanoma) was > 100 µM. For the same compound, the TGI (UACC-62 melanoma) was > 100 µM and the TGI (UO-31 renal) was 74 µM.
